In PMC8408311 (Diabetologia, 2021):
Where no end group is shown, it is not given here.

Columns and labels:
[1] = CADODIAME study, subclinical diabetic macular oedema; assay type: in vivo, human; details: 1000 mg twice per day, 1 year; SD 14
C2C12 myotubes = test: C2-ceramide recycling and insulin response in C2C12 myotubes; assay type: cell-based, mouse
[2] = VERTIS CV, analysis in older patients; assay type: in vivo, human
[3] = Low dose gliclazide and sitagliptin crossover study, mixed meal test and CGM; assay type: in vivo, human; details: 2-hour MMT after 14 days
[4] = 3-year prospective observational study of quadruple oral therapy in T2DM; assay type: in vivo, human; details: empagliflozin 25 mg/day, dapagliflozin 10 mg/day
[5] = EMPA-REG OUTCOME, uric acid and gout analysis; assay type: in vivo, human
C57BL/6 mice = test: High-fat diet-fed mice, 8 weeks of treatment; assay type: in vivo, mouse; details: HFD mice, 10mg/kg for 8 weeks
[6] = system: people with T2D inadequately controlled with diet and exercise; test: SURPASS-1 trial; assay type: in vivo, human; details: across TZP doses
[7] = SURPASS-2, add-on to metformin in type 2 diabetes; assay type: in vivo, human; details: TZP range over 5-15 mg; SEMA 1 mg
[8] = SURPASS-5, add-on to insulin glargine in type 2 diabetes; details: range over 5, 10, 15 mg
Arrb2-/- beta cells = test: Incretin responses in Arrb2-/- beta cells; assay type: cell-based, mouse
[9] = system: mouse pancreatic beta cells; test: PKA activation; assay type: cell-based; details: only effective from
[10] = Tirzepatide single-dose PK in hepatic impairment; assay type: in vivo, human
[11] = Danish registry cohort, hypoglycaemic episodes leading to hospitalisation; assay type: in vivo, human
[12] = system: patients with type 2 diabetes at CV risk; test: PIONEER 6, treatment discontinuation; design: species or system human; details: in vivo
HFD C57BL/6J mice = test: obesity-induced cardiac dysfunction, high-fat diet mice; assay type: in vivo; details: 10 mg/kg/day intragastric for 8 weeks
male Wistar rats = test: 30-min filament middle cerebral artery occlusion; assay type: in vivo, rat; details: 48 h after MCAO; healthy 18 points, maximal deficit 3 points
[13] = EXPECT trial, pregnant women with type 1 diabetes; assay type: in vivo, human; details: degludec once daily or detemir 1-2 times daily, both with insulin aspart
[14] = Liraglutide crossover trial, Holter monitoring and echocardiography; assay type: in vivo, human; details: 12 weeks
[15] = SUSTAIN 10 post hoc analysis by baseline SGLT-2i; assay type: in vivo, human

O=S(=O)(O)c1cc(O)ccc1O [CaD, Calcium dobesilate]
Mean decrease of retinal thickness [1]: 2.5 μm

COc1ccc(/C=C/C(=O)c2c(-c3ccccc3)c3ccccc3[nH]c2=O)cc1 [ceranib-2]
Accumulation in total endogenous Cer content (C2C12 myotubes; 2 h treatment, ceranib-2 alone): 50%

CCOc1ccc(Cc2cc([C@]34OC[C@](CO)(O3)[C@@H](O)[C@H](O)[C@H]4O)ccc2Cl)cc1 [ertugliflozin]
Incidence of hypovolemia AEs ([2]; patients ≥65 yrs): 5.3%
Incidence of hypovolemia AEs ([2]; patients ≥75 yrs): 6.9%

CCCCCCCCCCCCC/C=C/[C@@H](O)[C@H](CO)NC(C)=O [C2cer, C2-Cer]
Effect on the insulin signal (C2C12 myotubes; at 25 mM glucose): inhibited completely the insulin signal

N[C@@H](CC(=O)N1CCn2c(nnc2C(F)(F)F)C1)Cc1cc(F)c(F)cc1F [DPP4, sitagliptin]
Beta cell glucose sensitivity [3]: 75.9 (55.7 - 96.0) pmol min^-1 m^-2mM^-1

OC[C@H]1O[C@@H](c2ccc(Cl)c(Cc3ccc(O[C@H]4CCOC4)cc3)c2)[C@H](O)[C@@H](O)[C@@H]1O [empagliflozin, Empagliflozin]
Change in body weight at 3 years [4]: -4.5 ± 2.5 kg
Change in fasting plasma glucose at 3 years [4]: -59.3 ± 53.3 mg/dL
Hazard ratio (95% CI) for gout flare or initiation of a drug for gout vs placebo ([5]; pooled empagliflozin): 0.67 (0.53, 0.85)
Patients with a gout flare or initiation of a drug for gout ([5]; pooled empagliflozin, patients not on UA lowering medication at baseline): 3.6%
Serum uric acid, adjusted mean (95% CI) treatment difference vs placebo ([5]; week 52, baseline UA levels ≥6 mg/dL): −0.46 (−0.55, −0.38) mg/dL
Serum uric acid, adjusted mean (95% CI) treatment difference vs placebo ([5]; week 52, pooled 10 and 25 mg/day): −0.37 (−0.42, −0.31) mg/dL
Body weight (C57BL/6 mice): 40 ± 0.9 g
Fat mass (C57BL/6 mice): 8.5 ± 1.5 g

CC[C@H](C)[C@H](NC(=O)[C@H](CC(C)C)NC(=O)[C@H](Cc1c[nH]c2ccccc12)NC(=O)[C@H](CCC(N)=O)NC(=O)[C@@H](NC(=O)[C@H](Cc1ccccc1)NC(=O)[C@H](C)NC(=O)[C@H](CCCCNC(=O)COCCOCCNC(=O)COCCOCCNC(=O)CC[C@H](NC(=O)CCCCCCCCCCCCCCCCCCC(=O)O)C(=O)O)NC(=O)[C@H](CCC(N)=O)NC(=O)[C@H](C)NC(=O)[C@@H](NC(=O)[C@H](CCCCN)NC(=O)[C@H](CC(=O)O)NC(=O)[C@H](CC(C)C)NC(=O)C(C)(C)NC(=O)[C@@H](NC(=O)[C@H](CO)NC(=O)[C@H](Cc1ccc(O)cc1)NC(=O)[C@H](CC(=O)O)NC(=O)[C@H](CO)NC(=O)[C@@H](NC(=O)[C@H](Cc1ccccc1)NC(=O)[C@@H](NC(=O)CNC(=O)[C@H](CCC(=O)O)NC(=O)C(C)(C)NC(=O)[C@@H](N)Cc1ccc(O)cc1)[C@@H](C)O)[C@@H](C)O)[C@@H](C)CC)[C@@H](C)CC)C(C)C)C(=O)N[C@@H](C)C(=O)NCC(=O)NCC(=O)N1CCC[C@H]1C(=O)N[C@@H](CO)C(=O)N[C@@H](CO)C(=O)NCC(=O)N[C@@H](C)C(=O)N1CCC[C@H]1C(=O)N1CCC[C@H]1C(=O)N1CCC[C@H]1C(=O)N[C@@H](CO)C(N)=O [TZP, Tirzepatide]
Diarrhoea [6]: 12-14%
Nausea [6]: 12-18%
Diarrhoea [7]: 13-16%
Nausea [7]: 17-22%
Vomiting [7]: 6-10%
Diarrhoea, patients reporting [8]: 12-21%
Incidence of hypoglycaemia (blood glucose <3.0 mmol/L) or severe hypoglycaemia [8]: 14-19%
Nausea, patients reporting [8]: 13-18%
Vomiting, patients reporting [8]: 7-13%

glucagon-like peptide 1 (HAEGTFTSDVSSYLEGQAAKEFIAWLVKGR; ends and bridges not checked; UniProt P01275 98-127, looked up) [GLP-1]
Reduction of ERK1/2 activation in Arrb2-/- beta cells (Arrb2-/- beta cells): ~ 50%

glucose-dependent insulinotropic polypeptide (YAEGTFISDYSIAMDKIHQQDFVNWLLAQKGKKNDWKHNITQ; Gastric inhibitory polypeptide; UniProt P09681 52-93, looked up) [GIP]
Lowest effective concentration on PKA activation and insulin secretion [9]: ≥ 1 nM
Reduction of insulin secretion in Arrb2-/- beta cells (Arrb2-/- beta cells): ~ 50%

CC[C@H](C)[C@H](NC(=O)[C@H](CC(C)C)NC(=O)[C@H](Cc1c[nH]c2ccccc12)NC(=O)[C@H](CCC(N)=O)NC(=O)[C@@H](NC(=O)[C@H](Cc1ccccc1)NC(=O)[C@H](C)NC(=O)[C@H](CCCCNC(=O)COCCOCCNC(=O)COCCOCCNC(=O)CC[C@H](NC(=O)CCCCCCCCCCCCCCCCCCC(=O)O)C(=O)O)NC(=O)[C@H](CCC(N)=O)NC(=O)[C@H](C)NC(=O)[C@@H](NC(=O)[C@H](CCCCN)NC(=O)[C@H](CC(=O)O)NC(=O)[C@H](CC(C)C)NC(=O)C(C)(C)NC(=O)[C@@H](NC(=O)[C@H](CO)NC(=O)[C@H](Cc1ccc(O)cc1)NC(=O)[C@H](CC(=O)O)NC(=O)[C@H](CO)NC(=O)[C@@H](NC(=O)[C@H](Cc1ccccc1)NC(=O)[C@@H](NC(=O)CNC(=O)[C@H](CCC(=O)O)NC(=O)C(C)(C)NC(=O)[C@@H](N)Cc1ccc(O)cc1)[C@@H](C)O)[C@@H](C)O)[C@@H](C)CC)[C@@H](C)CC)C(C)C)C(=O)N[C@@H](C)C(=O)NCC(=O)NCC(=O)N1CCC[C@H]1C(=O)N[C@@H](CO)C(=O)N[C@@H](CO)C(=O)NCC(=O)N[C@@H](C)C(=O)N1CCC[C@H]1C(=O)N1CCC[C@H]1C(=O)N1CCC[C@H]1C(=O)N[C@@H](CO)C(N)=O [Tirzepatide]
median tmax ([10]; across all groups): no change
geometric least squares mean t1/2 ([10]; control and hepatic impairment groups): similar

human insulin
HR for hypoglycaemic episodes leading to hospitalisation ([11]; combination human insulin): 1.84
HR for hypoglycaemic episodes leading to hospitalisation ([11]; intermediate-acting human insulin): 1.38

CC[C@H](C)[C@H](NC(=O)[C@H](Cc1ccccc1)NC(=O)[C@H](CCC(=O)O)NC(=O)[C@H](CCCCNC(=O)COCCOCCNC(=O)COCCOCCNC(=O)CC[C@H](NC(=O)CCCCCCCCCCCCCCCCC(=O)O)C(=O)O)NC(=O)[C@H](C)NC(=O)[C@H](C)NC(=O)[C@H](CCC(N)=O)NC(=O)CNC(=O)[C@H](CCC(=O)O)NC(=O)[C@H](CC(C)C)NC(=O)[C@H](Cc1ccc(O)cc1)NC(=O)[C@H](CO)NC(=O)[C@H](CO)NC(=O)[C@@H](NC(=O)[C@H](CC(=O)O)NC(=O)[C@H](CO)NC(=O)[C@@H](NC(=O)[C@H](Cc1ccccc1)NC(=O)[C@@H](NC(=O)CNC(=O)[C@H](CCC(=O)O)NC(=O)C(C)(C)NC(=O)[C@@H](N)Cc1cnc[nH]1)[C@@H](C)O)[C@@H](C)O)C(C)C)C(=O)N[C@@H](C)C(=O)N[C@@H](Cc1c[nH]c2ccccc12)C(=O)N[C@@H](CC(C)C)C(=O)N[C@H](C(=O)N[C@@H](CCCNC(=N)N)C(=O)NCC(=O)N[C@@H](CCCNC(=N)N)C(=O)NCC(=O)O)C(C)C [oral semaglutide, semaglutide]
patients who stopped at least once due to an AE [12]: 27%

OC[C@H]1O[C@@H](c2ccc(Cl)c(Cc3ccc(O[C@H]4CCOC4)cc3)c2)[C@H](O)[C@@H](O)[C@@H]1O [EMPA, empagliflozin]
body weight and whole-body fat (HFD C57BL/6J mice): Lower
myocardial damage (HFD C57BL/6J mice): reduced
Garcia score (neurological deficit) (male Wistar rats): 12.0 (9.5; 14.0) points

insulin detemir
Estimated mean HbA1c prior to delivery [13]: 6.34%

CCCCCCCCCCCCCCCC(=O)N[C@@H](CCC(=O)NCCCC[C@H](NC(=O)[C@H](C)NC(=O)[C@H](C)NC(=O)[C@H](CCC(N)=O)NC(=O)CNC(=O)[C@H](CCC(=O)O)NC(=O)[C@H](CC(C)C)NC(=O)[C@H](Cc1ccc(O)cc1)NC(=O)[C@H](CO)NC(=O)[C@H](CO)NC(=O)[C@@H](NC(=O)[C@H](CC(=O)O)NC(=O)[C@H](CO)NC(=O)[C@@H](NC(=O)[C@H](Cc1ccccc1)NC(=O)[C@@H](NC(=O)CNC(=O)[C@H](CCC(=O)O)NC(=O)[C@H](C)NC(=O)[C@@H](N)Cc1cnc[nH]1)[C@@H](C)O)[C@@H](C)O)C(C)C)C(=O)N[C@@H](CCC(=O)O)C(=O)N[C@@H](Cc1ccccc1)C(=O)N[C@H](C(=O)N[C@@H](C)C(=O)N[C@@H](Cc1c[nH]c2ccccc12)C(=O)N[C@@H](CC(C)C)C(=O)N[C@H](C(=O)N[C@@H](CCCNC(=N)N)C(=O)NCC(=O)N[C@@H](CCCNC(=N)N)C(=O)NCC(=O)O)C(C)C)[C@@H](C)CC)C(=O)O [liraglutide]
Impairment of diastolic filling (e') [14]: 10%
Premature treatment discontinuations due to AEs ([15]; with SGLT-2i): 7.2%
Premature treatment discontinuations due to AEs ([15]; without SGLT-2i): 6.4%
